From the supplement of paper PMC10733146

Key:
Experiment in all cases: viability relative to DMSO control (fraction); higher = less drug effect (more viable cells)
Conditions in all cases: 48 h
[1] = compound: CC#CC(=O)N1CC[C@@H](n2c(=O)n(-c3ccc(Oc4ccccc4)cc3)c3c(N)ncnc32)C1 [ONO-4059]
Method in brief: (§1)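 Primary mononuclear tumour cells (Ficoll-isolated from blood or bone marrow, or processed lymph node; fresh or cryopreserved) were plated at 4 × 10^4 cells per well in 384-well plates with pre-plated compounds at five concentrations, one well each. Medium was RPMI-1640 with penicillin/streptomycin, L-glutamine and human serum, at 37 °C and 5% CO2 for 48 h. Viability was read as CellTiter-Glo luminescence relative to the median of 16 inner DMSO wells.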

[2] = compound: CC(C)N(C[C@H]1O[C@@H](n2cnc3c(N)ncnc32)[C@H](O)[C@@H]1O)[C@H]1C[C@@H](CCc2nc3cc(C(C)(C)C)ccc3[nH]2)C1 [EPZ-5676]
Method in brief: as §1

[3] = compound: COc1c(Cl)cc2c([nH]c3cnccc32)c1NC(=O)c1cccnc1C [MLN-120B]
Method in brief: as §1

[4] = compound: Cc1cn(-c2cc(NC(=O)c3ccc(C)c(Nc4nccc(-c5cccnc5)n4)c3)cc(C(F)(F)F)c2)cn1 [Nilotinib]
Method in brief: as §1

Test System | viability ([1]; 0.0016 µM) | viability ([1]; 0.008 µM) | viability ([1]; 0.04 µM) | viability ([1]; 0.2 µM) | viability ([1]; 1 µM) | viability ([2]; 0.0032 µM) | viability ([2]; 0.016 µM) | viability ([2]; 0.08 µM) | viability ([2]; 0.4 µM) | viability ([2]; 2 µM) | viability ([3]; 0.024 µM) | viability ([3]; 0.12 µM) | viability ([3]; 0.6 µM) | viability ([3]; 3 µM) | viability ([3]; 15 µM) | viability ([4]; 0.016 µM) | viability ([4]; 0.08 µM) | viability ([4]; 0.4 µM) | viability ([4]; 2 µM) | viability ([4]; 10 µM)
primary MCL patient cells (S041) | 0.927 | 0.877 | 0.819 | 0.92 | 0.875 | 0.925 | 0.99 | 0.925 | 0.928 | 0.983 | 1.02 | 0.961 | 1.02 | 0.92 | 0.924 | 1.12 | 1.14 | 1.09 | 1.09 | 1.12
primary MCL patient cells (S053) | 0.729 | 0.612 | 0.594 | 0.626 | 0.638 | 0.942 | 1.1 | 0.901 | 0.946 | 1.04 | 0.91 | 0.892 | 0.935 | 0.842 | 0.76 | 1.13 | 1.04 | 1.11 | 1.08 | 1.21
primary MCL patient cells (S063) | 0.777 | 0.321 | 0.254 | 0.237 | 0.267 | 0.944 | 1.12 | 0.956 | 1.03 | 1.11 | 0.959 | 0.924 | 0.936 | 0.814 | 0.66 | 1.15 | 1.09 | 1.17 | 1.15 | 1.11
primary MCL patient cells (S068) | 0.759 | 0.715 | 0.692 | 0.665 | 0.717 | 0.98 | 1.16 | 1.02 | 1.05 | 1.07 | 0.885 | 0.872 | 0.853 | 0.751 | 0.593 | 1.16 | 1.08 | 1.14 | 1.09 | 1.27
primary T-PLL patient cells (S008) | 1.02 | 1 | 1.03 | 1.03 | 1.06 | 0.902 | 0.963 | 0.917 | 0.95 | 1 | 1.03 | 1.01 | 1.03 | 1 | 0.963 | 1.09 | 1.02 | 1.11 | 1.01 | 1.06
